This is an account of results in patent US9789099B2, “Cosmetic or dermatological preparation for prophylaxis and/or treatment of atopic dermatitis” (Beiersdorf AG, priority 2012, dated 2017).

Molecules are shown by their SMILES.

Holding throughout (type): in vivo, human
The subject of one test is S. aureus. Nature of the test: Same study: colonization of the skin lesions with S. aureus. Particulars: topical; same two-arm design. The source says: (§1) Using a randomized, blind (participant), controlled, two-armed study design, it was the aim to evaluate the cortisone saving potential and the non-inferiority of the test sample during an application twice daily lasting for four weeks compared to the […] treatment with 1% hydrocortisone (HC), followed by an application of the test sample for a further three weeks. The study results were based on an assessment, controlled by the dermatologist, of the degree of severity of the clinical size of atopic dermatitis, the colonization of the skin lesions with S. aureus, biotechnological measurement of parameters of the epidermal barrier function, as well as the itching intensity in the test area.

Test [1] deals with patients with atopic dermatitis of mild to moderate severity. Nature of the test: Randomized, blind, controlled two-armed study: dermatologist-assessed clinical severity (local SCORAD, erythema).
Excerpt: Using a randomized, blind (participant), controlled, two-armed study design, it was the aim to evaluate the cortisone saving potential and the non-inferiority of the test sample during an application twice daily lasting for four weeks compared to the once-weekly treatment with 1% hydrocortisone (HC), followed by an application of the test sample for a further three weeks. The study results were based on an assessment, controlled by the dermatologist, of the degree of severity of the clinical size of atopic dermatitis, the colonization of the skin lesions with S. aureus, biotechnological measurement of parameters of the epidermal barrier function, as well as the itching intensity in the test area.
The subject of test [2] is lesional skin of patients with atopic dermatitis. Nature of the test: Same study: parameters of the epidermal barrier function (TEWL, skin moisture) on lesional skin.
Excerpt: as §1

Turning to `C[C@]12CCC(=O)C=C1CC[C@@H]1[C@@H]2[C@@H](O)C[C@@]2(C)[C@H]1CC[C@]2(O)C(=O)CO` [1% hydrocortisone, hydrocortisone], the “colonization of skin lesions with S. aureus” value with S. aureus is “significant reduction”. The erythema result in test [1] (topical, same two-arm design) is reported as “significant reduction”. Besides, the “local SCORAD” value in test [1] (topical, test sample twice daily for four weeks vs 1% HC for first week followed by test sample for three weeks) is “significant reduction”. The “changes in local SCORAD, erythema, TEWL and S. aureus colonization relative to the other arm” value in test [1] (within the first study week, differences between arms not significant apart from TEWL on day 7) is recorded as “greater changes”. Also, the “skin moisture of lesional skin” value in test [2] (application in the first study week) is “only slightly”. Also, the “lesional skin TEWL (transepidermal water loss)” value in test [2] (topical, same two-arm design) is on record as “significant reduction”.
